The text below walks through data of patent US20240415804A1, “METHOD OF TREATING PANCREATIC CANCER” (University of South Florida, priority 2022, published 2024).

In one assay the test system is UN-KC-6141 tumors. In words: Tumor growth in KC-HPC mice. To be noted: API 25 mg/kg IP three times per week. It is filed as in vivo, mouse. The method, then:
To build on these findings, the inventors then used a novel pancreatic cancer cell line, UN-KC-6141, that resembles human PC due to its expression of a mutated Kras and generated mice harboring these tumor cells, called KC-HPC mice. Such mice were treated with API at a dose of 25 mg/kg (IP) three times per week for 17 days. The inventors examined if API also targets miR-155 and regulates SHIP-1 in the tumors from KC-HPC mouse model. […] All female C57BL/6 mice (6-8 weeks of age) described in this study were purchased from Envigo (Indianapolis, IN, USA) and were acclimatize for one week in a pathogen-free animal facility (University of South Florida (USF) vivarium) before injections with PC cells. To generate heterotopic pancreatic cancer (HPC) models, mice were subcutaneously injected with 1.5×10^5 murine Panc02 (HPC mice) or 5×10^6 murine UN-KC-6141 cells (KC-HPC mice), in sterile 1× phosphate buffer saline (PBS), in the lower ventral abdomen, while control (CTRL) mice received sterile 1×PBS. Once tumors where palpable, API (25 mg/kg, 100 μL volume) treatments (HPC-API and KC-HPC-API), via intraperitoneal (IP) injections, were started while CTRL, HPC and KC-HPC mice received sterile PBS (vehicle) three times per week until the end of the study^12, 55. The HPC models were euthanized 21-28 days post-injection, while the KC-HPC models were euthanized 16-17 days post-injection.

The subject of a further assay is Panc02 cells. As to the kind of experiment: MTT cell viability assay, Panc02. To be noted: API 40 μM, 24 h, vs DMSO vehicle. It is filed as cell-based, mouse. The procedure: The methyl thiazol tetrazolium (MTT) assay was performed as described previously^58. Briefly, MiaPaCa-2, Panc02 and UN-KC-6141 cells were seeded in 96-well plates at a density of 3000 cells/well and allowed to attach overnight. PC cells were then treated with API (40 μM) or DMSO (1%) as vehicle control for 24 h at 37° C. in 5% CO2 incubator. After 24 h, media was replaced with 20 μL of MTT (1 mg/mL) (Sigma-Aldrich) and incubated for 3 h at 37° C. in 5% CO2. MTT was replaced with DMSO, and absorbance was read at 570 nm.
MiaPaCa-2, Panc02 and UN-KC-6141 cells (2×10^5) were grown in 2 mL of growth medium in a 6-well tissue culture plate for 18-24 h until 60-80% confluency. The following solutions were prepared: Solution A) For each transfection, diluted 1 μL of miRNA-155 inhibitors (1 μM) (Table 2) or scrambled negative control miRNA (1 μM) (Qiagen, Germantown, MD, USA) into 50 μL Opti-MEM Transfection Medium (Invitrogen, Waltham, MA, USA). Solution B) For each transfection, diluted 3 μL of Hi-Perfect Transfection Reagent into 50 μL Opti-MEM Transfection Medium. Solution A was added directly to Solution B, mixed gently and the mixture incubated for 10-15 min at room temperature. […]

In assay [1] the test system is heterotopic (H) mouse model of PC (HPC). The conditions noted are these: earlier report (ref 55); cited from earlier work.

As for `O=c1cc(-c2ccc(O)cc2)oc2cc(O)cc(O)c12` [API, 40,5,7-Trihydroxyflavone, 5,7-Dihydroxy-2-(4-hydroxyphenyl)-4-benzopyrone], in the assay with UN-KC-6141 tumors, the “tumor burden (tumor volume, tumor area)” value is recorded as “significantly reducing”. Moreover, the “cell viability (MTT)” value in the assay on Panc02 cells is “significantly inhibited”. In assay [1], the survival entry is “increased” and the tumor growth result is listed as “reduced”.
